Reference: PubChem BioAssay AID248 (DTP/NCI, 2004)
Toxic doses and inconclusive results are not listed. Cut-off read from the data, not from the text of the source: active = T/C of 150% or more; inactive = T/C below 125%. Numbered stars: 1 amine (or outer) side, 2 acyl side, 3 side chain; on linkers, the order of the positions; unused ones are H or OH. Bridge positions count the residues as written; N and C are the ends. Square brackets hold non-standard residues; d marks the D form. Peptide text beside a SMILES is read from it. I, II: the chains in the order shown. Actinocin(1to9) = Cc1c2oc3c(C)ccc(C(=O)[*:2])c3nc-2c(C(=O)[*:1])c(N)c1=O; X2 = CC(=O)OC1CC(C)N([*:1])C1C(=O)[*:2]; X1 = CC1CC(=O)C(C(=O)[*:2])N1[*:1]; NMeV = CN[CH](C(=O)O)C(C)C; NMeA = CN[CH](C)C(=O)O; Sar = CNCC(=O)O

Test system: L1210 leukemia ip in BDF1 mice, survival T/C
Test: NCI In Vivo Anticancer Drug Screen. Data for tumor model L1210 Leukemia (intraperitoneal) in B6D2F1 (BDF1) mice
Conditions: endpoint: mean survival time, higher = longer survival
How it was run: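 Mice bearing the transplanted tumor received compound or vehicle. Survival of the treated group was divided by that of the vehicle-treated control group to give the ratio.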

[1] = dose: 100.0 mg/kg/injection, schedule: Q04DX003 (ip), vehicle: saline with Tween-80
[2] = dose: 200.0 mg/kg/injection, schedule: Q04DX003 (ip), vehicle: saline with Tween-80
[3] = dose: 400.0 mg/kg/injection, schedule: Q04DX003 (ip), vehicle: saline with Tween-80
[4] = dose: 100.0 mg/kg/injection, schedule: Q01DX001 (ip), vehicle: saline
[5] = dose: 200.0 mg/kg/injection, schedule: Q01DX001 (ip), vehicle: saline
[6] = dose: 400.0 mg/kg/injection, schedule: Q01DX001 (ip), vehicle: saline
[7] = dose: 100.0 mg/kg/injection, schedule: Q04DX002 (ip), vehicle: Klucel (hydroxypropylcellulose) (HPC)
[8] = dose: 25.0 mg/kg/injection, schedule: Q01DX009 (ip), vehicle: saline
[9] = dose: 25.0 mg/kg/injection, schedule: Q04DX003 (ip), vehicle: saline
[10] = dose: 50.0 mg/kg/injection, schedule: Q04DX003 (ip), vehicle: saline
[11] = dose: 100.0 mg/kg/injection, schedule: Q04DX003 (ip), vehicle: Klucel (hydroxypropylcellulose) (HPC)
[12] = dose: 200.0 mg/kg/injection, schedule: Q04DX003 (ip), vehicle: Klucel (hydroxypropylcellulose) (HPC)

Measured: T/C

CC(=O)OC1CC(C)N2C(=O)C(C(C)C)NC(=O)C(NC(=O)c3ccc(C)c4oc5c(C)c(=O)c(N)c(C(=O)NC6C(=O)NC(C(C)C)C(=O)N7C(C)CC(=O)C7C(=O)N(C)CC(=O)N(C)C(C)C(=O)OC6C)c-5nc34)C(C)OC(=O)C(C(C)C)N(C)C(=O)CN(C)C(=O)C12 (centres undefined) (I: TV[X1][Sar][NMeA] / II: TV[X2][Sar][NMeV]; ester I:1-I:C, II:1-II:C; linker I:N-II:N via Actinocin(1to9); configuration not given here)
inactive: dose: 0.1 mg/kg/injection, schedule: Q01DX009 (ip), vehicle: saline + alcohol 101 % of control | dose: 0.2 mg/kg/injection, schedule: Q01DX009 (ip), vehicle: saline + alcohol 105 % of control | dose: 0.3 mg/kg/injection, schedule: Q04DX003 (ip), vehicle: saline + alcohol 97 % of control | dose: 0.4 mg/kg/injection, schedule: Q01DX009 (ip), vehicle: saline + alcohol 110 % of control | dose: 0.6 mg/kg/injection, schedule: Q04DX003 (ip), vehicle: saline + alcohol 108 % of control | dose: 0.8 mg/kg/injection, schedule: Q01DX001 (ip), vehicle: saline + alcohol 97 % of control | dose: 0.8 mg/kg/injection, schedule: Q01DX009 (ip), vehicle: saline + alcohol 116 % of control | dose: 1.2 mg/kg/injection, schedule: Q04DX003 (ip), vehicle: saline + alcohol 110 % of control | dose: 1.6 mg/kg/injection, schedule: Q01DX001 (ip), vehicle: saline + alcohol 102 % of control | dose: 1.6 mg/kg/injection, schedule: Q01DX009 (ip), vehicle: saline + alcohol 122 % of control | dose: 2.4 mg/kg/injection, schedule: Q04DX003 (ip), vehicle: saline + alcohol 112 % of control | dose: 3.2 mg/kg/injection, schedule: Q01DX001 (ip), vehicle: saline + alcohol 106 % of control | dose: 4.8 mg/kg/injection, schedule: Q04DX003 (ip), vehicle: saline + alcohol 121 % of control | dose: 6.4 mg/kg/injection, schedule: Q01DX001 (ip), vehicle: saline + alcohol 122 % of control

O=C1C=CC(=O)N1c1nccs1
inactive: [1] 95 % of control | [2] 90 % of control | [3] 95 % of control

O=C(OC1COC(SCc2ccccc2)C(OC(=O)c2ccccc2)C1OC(=O)c1ccccc1)c1ccccc1 (centres undefined)
inactive: [4] 98 % of control | [5] 110 % of control | [6] 97 % of control

CCC1(CC)C(=O)NC(=O)N(C)C1=O
inactive: [7] 112 % of control | dose: 200.0 mg/kg/injection, schedule: Q04DX002 (ip), vehicle: Klucel (hydroxypropylcellulose) (HPC) 88 % of control

C=CCN(CC=C)CCN1CCN(CCCN2c3ccccc3Sc3ccc(C(F)(F)F)cc32)CC1
inactive: dose: 6.25 mg/kg/injection, schedule: Q01DX009 (ip), vehicle: saline 98 % of control | dose: 6.25 mg/kg/injection, schedule: Q04DX003 (ip), vehicle: saline 109 % of control | dose: 12.5 mg/kg/injection, schedule: Q01DX009 (ip), vehicle: saline 100 % of control | dose: 12.5 mg/kg/injection, schedule: Q04DX003 (ip), vehicle: saline 91 % of control | [8] 94 % of control | [9] 112 % of control | [10] 97 % of control | dose: 56.25 mg/kg/injection, schedule: Q01DX001 (ip), vehicle: saline 102 % of control | dose: 100.0 mg/kg/injection, schedule: Q04DX003 (ip), vehicle: saline 119 % of control | dose: 112.5 mg/kg/injection, schedule: Q01DX001 (ip), vehicle: saline 114 % of control

CC1CCc2cc3ccccc3nc21 (centres undefined)
inactive: dose: 50.0 mg/kg/injection, schedule: Q01DX009 (ip), vehicle: saline with Tween-80 104 % of control | dose: 100.0 mg/kg/injection, schedule: Q01DX009 (ip), vehicle: saline with Tween-80 104 % of control | dose: 200.0 mg/kg/injection, schedule: Q01DX009 (ip), vehicle: saline with Tween-80 112 % of control

c1cc(C[N+]23CN4CN(CN(C4)C2)C3)cs1
inactive: [9] 93 % of control | [10] 95 % of control

NC(=O)c1n[nH]c(C2OCC(O)C2O)c1I (centres undefined)
inactive: dose: 100.0 mg/kg/injection, schedule: Q01DX005 (ip), vehicle: saline 100 % of control | dose: 200.0 mg/kg/injection, schedule: Q01DX005 (ip), vehicle: saline 108 % of control

Nc1cccc2ncc(C=O)n12
inactive: dose: 37.5 mg/kg/injection, schedule: Q01DX001 (ip), vehicle: Klucel (hydroxypropylcellulose) (HPC) 102 % of control | dose: 75.0 mg/kg/injection, schedule: Q01DX001 (ip), vehicle: Klucel (hydroxypropylcellulose) (HPC) 96 % of control | dose: 150.0 mg/kg/injection, schedule: Q01DX001 (ip), vehicle: Klucel (hydroxypropylcellulose) (HPC) 95 % of control

Cc1ccc(S(=O)(=O)OC(c2ccccc2)c2ccccc2)cc1
inactive: dose: 25.0 mg/kg/injection, schedule: Q04DX002 (ip), vehicle: Klucel (hydroxypropylcellulose) (HPC) 97 % of control | dose: 50.0 mg/kg/injection, schedule: Q04DX002 (ip), vehicle: Klucel (hydroxypropylcellulose) (HPC) 97 % of control | [7] 93 % of control

CCCCCCCCC1OCC(C)(C)C(C(C)C)O1 (centres undefined)
inactive: dose: 50.0 mg/kg/injection, schedule: Q01DX001 (ip), vehicle: carboxymethylcellulose (CMC) 102 % of control | dose: 100.0 mg/kg/injection, schedule: Q01DX001 (ip), vehicle: carboxymethylcellulose (CMC) 104 % of control | dose: 200.0 mg/kg/injection, schedule: Q01DX001 (ip), vehicle: carboxymethylcellulose (CMC) 107 % of control | dose: 400.0 mg/kg/injection, schedule: Q01DX001 (ip), vehicle: carboxymethylcellulose (CMC) 104 % of control

Oc1ccc(N=Cc2ccccc2O)cc1.[Co]
inactive: dose: 100.0 mg/kg/injection, schedule: Q01DX001 (ip), vehicle: other 98 % of control | dose: 200.0 mg/kg/injection, schedule: Q01DX001 (ip), vehicle: other 94 % of control | dose: 400.0 mg/kg/injection, schedule: Q01DX001 (ip), vehicle: other 102 % of control

O=C1C(Cl)=C(Cl)C(=O)N1CCCCCCN1C(=O)C(Cl)=C(Cl)C1=O
inactive: [11] 92 % of control | [12] 87 % of control | dose: 400.0 mg/kg/injection, schedule: Q04DX003 (ip), vehicle: Klucel (hydroxypropylcellulose) (HPC) 92 % of control

O=C(/C=C\c1ccccc1Cl)c1ccccc1
inactive: dose: 100.0 mg/kg/injection, schedule: Q04DX002 (ip), vehicle: gum acacia 98 % of control | dose: 200.0 mg/kg/injection, schedule: Q04DX002 (ip), vehicle: gum acacia 95 % of control | dose: 400.0 mg/kg/injection, schedule: Q04DX002 (ip), vehicle: gum acacia 113 % of control

CC(NC(=O)C(NC(=O)c1cnc2ccccc2n1)C(C)C)C(=O)O (centres undefined)
inactive: [4] 94 % of control | dose: 100.0 mg/kg/injection, schedule: Q04DX003 (ip), vehicle: acetone 99 % of control | [5] 104 % of control | dose: 200.0 mg/kg/injection, schedule: Q04DX003 (ip), vehicle: acetone 103 % of control | [6] 96 % of control | dose: 400.0 mg/kg/injection, schedule: Q04DX003 (ip), vehicle: acetone 99 % of control

Cc1ccc2scc3c4ccccc4nc-3c2c1
inactive: [8] 95 % of control | dose: 50.0 mg/kg/injection, schedule: Q01DX009 (ip), vehicle: saline 95 % of control

CCCCCC(N)C(=O)O (centres undefined)
inactive: dose: 12.5 mg/kg/injection, schedule: Q04DX002 (ip), vehicle: saline 104 % of control | dose: 25.0 mg/kg/injection, schedule: Q04DX002 (ip), vehicle: saline 100 % of control | dose: 50.0 mg/kg/injection, schedule: Q04DX002 (ip), vehicle: saline 107 % of control

O=C(Cc1ccccn1)NCCc1ccccc1
inactive: dose: 75.0 mg/kg/injection, schedule: Q01DX009 (ip), vehicle: saline 93 % of control | dose: 75.0 mg/kg/injection, schedule: Q04DX003 (ip), vehicle: saline 108 % of control | dose: 150.0 mg/kg/injection, schedule: Q01DX009 (ip), vehicle: saline 94 % of control | dose: 150.0 mg/kg/injection, schedule: Q04DX003 (ip), vehicle: saline 108 % of control | dose: 300.0 mg/kg/injection, schedule: Q04DX003 (ip), vehicle: saline 90 % of control

CCOC(=O)c1ccc(OC2CCCCO2)c(OC2CCCCO2)c1 (centres undefined)
inactive: [1] 98 % of control | [2] 98 % of control | [3] 98 % of control

O=C(CI)Nc1ccc(NC(=O)CI)cc1
inactive: [11] 90 % of control | [12] 95 % of control
